Measurements taken from ChEMBL document CHEMBL3137356, “MMV Box Cryptosporidium parvum screening set”.

Test system: Cryptosporidium parvum
Experiment: MMV: Cryptosporidium parvum oocysts (Iowa Strain) were prepared for use by treatment with 10 mM HCl (37 degrees C, 10 min) followed by 2 mM sodium taurocholate in phosphate-buffered saline (PBS) with Ca2+ and Mg2+ (16 degrees C, 10 min) in order to stimulate excystation. The high-throughput screen was carried out by inoculating >90% confluent human ileocecal adenocarcinoma (HCT-8) cells (ATCC) with ~5.5 x 10^3 primed oocysts per well. Experimental compounds or DMSO (vehicle) were added three hours after infection, and cells were incubated for 48 hours.
Format: functional

Row | SMILES | Inhibition
1 | CN(C)c1ccc(C=Cc2nc(=O)c3ccccc3o2)cc1 | -61.37%
2 | CCn1c(CN2CCN(Cc3ccccc3)CC2)nc2cc(NC(=O)c3cccs3)ccc21 | -14.21%
3 | CC(C)OCc1cc(CN2CCN(c3cccc(Cl)c3)CC2)c(O)c2ncccc12 | 54.97%
4 | CCOC(=O)c1cnc2ccc(OC)cc2c1Nc1ccc(N2CCN(C)CC2)cc1 | -40.43%
5 | COc1ccc(C2Sc3ccccc3N=C3C2=C(O)c2ccccc23)cc1 (centres undefined) | 19.55%
6 | COc1ccc(C=C2SC(=N)N(c3ccccc3OC)C2=O)cc1 | 10.76%
7 | CCCC(c1nnnn1C1CCCCC1)N1CCN(C(=O)c2ccco2)CC1.Cl (centres undefined) | -55.52%
8 | Oc1ccc2ccccc2c1CNc1nc2ccccc2[nH]1 | -48.76%
9 | O=C(NCCCN1CCC(N2CCCCC2)CC1)C1=Cc2cc(Br)ccc2OC1 | -11.72%
10 | CCOC(=O)c1cn(CC)c2cc(N(C)CCc3ccc(OC)c(OC)c3)c(F)cc2c1=O | 43.56%
11 | CCOc1ccc(C2N(C)c3ccccc3N2C)cc1 | -19.63%
12 | CCOc1ccc(-c2nc(NC(=O)c3cccc(S(C)(=O)=O)c3)sc2C)cc1 | 26.25%
13 | CCN(CC)CCNc1ncnc2c1[nH]c1ccc(Cl)cc12 | -27.98%
14 | CCCCNCC(O)(c1ccc(Cl)cc1)c1ccc(Cl)cc1 | 9.548%
15 | O=C1c2ccccc2-c2nnc(-c3ccc(Br)cc3)cc21 | -13.35%
16 | CCCCCCc1cc2cc(-c3nc4ccccc4[nH]3)c(=Nc3ccccc3C)oc2cc1O | -3.461%
17 | CN(C)c1ccc(-c2nc3cc(N)ccc3[nH]2)cc1 | -41.71%
18 | Cc1sc(NC(=O)c2ccco2)c(C(c2cccnc2)N2CCC(Cc3ccccc3)CC2)c1C (centres undefined) | -7.724%
19 | Cc1sc(NC(=O)c2ccccc2)c(C(c2cccs2)N2CCN(c3ccccc3)CC2)c1C (centres undefined) | -51.35%
